“Also recorded” adds a separate entry of the source.
Key:
α1A-AR [1] = test: cAMP assay and PAM assay in Rat-1 fibroblasts expressing α1A-AR; type: cell-based; details: for PAM activity (NE-mediated cAMP potentiation, PAM assay): NE 10^−4 M held constant, compound dose-response; for intrinsic (basal) agonist activity, cAMP: compound alone, dose-response
α1A-AR [2] = target: T1, α1A-AR (Homo sapiens, UniProt P35348); test: Total inositol phosphate assay in Rat-1 fibroblasts expressing α1A-AR; type: cell-based; details: for intrinsic (basal) agonist activity, inositol phosphate: compound alone, dose-response
T1 sequence (P35348 1-466): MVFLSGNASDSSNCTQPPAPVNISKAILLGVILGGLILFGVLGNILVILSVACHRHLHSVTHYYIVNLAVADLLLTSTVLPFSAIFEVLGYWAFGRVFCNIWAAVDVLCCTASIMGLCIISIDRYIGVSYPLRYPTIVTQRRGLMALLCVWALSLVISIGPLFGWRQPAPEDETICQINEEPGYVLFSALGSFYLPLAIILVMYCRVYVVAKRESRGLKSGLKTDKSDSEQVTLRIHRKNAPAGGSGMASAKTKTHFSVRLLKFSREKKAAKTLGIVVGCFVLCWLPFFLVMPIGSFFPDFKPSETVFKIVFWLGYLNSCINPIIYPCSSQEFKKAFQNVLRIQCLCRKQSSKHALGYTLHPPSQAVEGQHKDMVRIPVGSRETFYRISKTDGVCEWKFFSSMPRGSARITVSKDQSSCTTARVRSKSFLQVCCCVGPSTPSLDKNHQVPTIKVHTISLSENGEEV

α2A-AR = target: T2, α2A-AR (Homo sapiens, UniProt P08913); type: binding; details: Cos-1 membranes
T2 sequence (P08913 1-465): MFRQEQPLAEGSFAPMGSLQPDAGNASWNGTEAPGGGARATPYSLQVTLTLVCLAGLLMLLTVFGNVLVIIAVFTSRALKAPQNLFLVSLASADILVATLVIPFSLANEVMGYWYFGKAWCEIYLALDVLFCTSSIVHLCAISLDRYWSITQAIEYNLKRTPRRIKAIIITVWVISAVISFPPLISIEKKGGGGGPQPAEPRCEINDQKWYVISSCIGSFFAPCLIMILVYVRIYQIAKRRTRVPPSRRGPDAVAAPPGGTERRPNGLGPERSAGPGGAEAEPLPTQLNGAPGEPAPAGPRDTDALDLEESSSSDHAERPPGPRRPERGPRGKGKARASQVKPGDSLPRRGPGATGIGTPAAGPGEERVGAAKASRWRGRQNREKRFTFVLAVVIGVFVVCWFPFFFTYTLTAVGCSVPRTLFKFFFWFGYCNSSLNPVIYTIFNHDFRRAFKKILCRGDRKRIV

α1A-AR [3] = target: T1, α1A-AR; type: binding; details: for extent of inhibition of 125I-HEAT binding at α1A-AR: 0.5 mM GTP
α1A-AR [4] = target: T1, α1A-AR; details: ref Hwa et al., 1995; cited from earlier work
α1B-AR = type: binding; details: 0.5 mM GTP
α1D-AR = target: T3, α1D-AR (Homo sapiens, UniProt P25100); type: binding; details: 0.5 mM GTP
T3 sequence (P25100 1-572): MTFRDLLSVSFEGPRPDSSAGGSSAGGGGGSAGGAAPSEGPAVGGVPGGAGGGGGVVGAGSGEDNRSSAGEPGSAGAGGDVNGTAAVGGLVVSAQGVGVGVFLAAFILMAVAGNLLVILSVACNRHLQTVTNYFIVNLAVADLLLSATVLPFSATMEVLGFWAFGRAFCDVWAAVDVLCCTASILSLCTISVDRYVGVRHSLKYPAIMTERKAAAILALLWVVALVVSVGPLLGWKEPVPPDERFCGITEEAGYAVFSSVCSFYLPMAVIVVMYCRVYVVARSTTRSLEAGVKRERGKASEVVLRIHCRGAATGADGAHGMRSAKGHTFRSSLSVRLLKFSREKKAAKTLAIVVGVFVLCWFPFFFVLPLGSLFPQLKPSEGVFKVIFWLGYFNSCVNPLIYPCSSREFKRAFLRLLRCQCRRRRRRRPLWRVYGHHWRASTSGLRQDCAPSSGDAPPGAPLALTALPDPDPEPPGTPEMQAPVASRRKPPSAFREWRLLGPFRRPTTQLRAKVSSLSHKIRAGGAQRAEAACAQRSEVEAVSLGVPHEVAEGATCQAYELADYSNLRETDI

Row | Structure (SMILES) | intrinsic (basal) agonist activity, inositol phosphate (α1A-AR [2]) | PAM activity (NE-mediated cAMP potentiation, PAM assay) (α1A-AR [1]) | intrinsic (basal) agonist activity, cAMP (α1A-AR [1]) | further results
1 | COC(=O)[C@H]1[C@H]2C[C@H]3c4[nH]c5ccccc5c4CCN3C[C@H]2CC[C@@H]1O [rauwolscine, reference compound] |  |  |  | extent of inhibition of 3H-RX821002 binding at α2A-AR (α2A-AR): fully inhibited
2 | Cc1c(OCC2=NCCN2)ccc(Cl)c1NS(C)(=O)=O [RO115-1240, Dabuzalgron, reference compound] | partial agonists | neither RO115-1240 nor cirazoline displayed any PAM characteristics | partial agonists | effect on Epi-mediated inositol phosphate signal at α1A-AR (α1A-AR [2]): effects consistent with a partial or full agonist; effect on NE-mediated inositol phosphate signal at α1A-AR (α1A-AR [2]): effects consistent with a partial or full agonist
3 | Cc1ccc(N(CC2=NCCN2)c2cccc(O)c2)cc1 [phentolamine] |  |  |  | extent of inhibition of 125I-HEAT binding at α1A-AR (α1A-AR [3]): fully inhibit; also recorded: completely inhibited
4 | CC(C)Cc1c(OCC2=NCCN2)ccc(Cl)c1N(C)S(C)(=O)=O.Cl [Cmpd-7, N-(6-Chloro-3-((4,5-dihydro-1H-imidazol-2-yl)methoxy)-2-isobutylphenyl)-N-methylmethanesulfonamide hydrochloride] |  | abolished PAM activity |  | 
5 | c1ccc(C2CC2)c(OCC2=NCCN2)c1 [cirazoline, reference compound] | partial agonists | competitive inhibition; also recorded: neither RO115-1240 nor cirazoline displayed any PAM characteristics | partial agonists; also recorded: greater intrinsic activity than RO115-1224 | selectivity for α1A-AR against the α1B- and α1D-AR subtypes (α1A-AR [4]): 10-50 fold; binding at α1B-AR (125I-HEAT competition) (α1B-AR): completely inhibited; effect on Epi-mediated cAMP response at α1A-AR (α1A-AR [1]; Epi dose-response, propranolol and rauwolscine present): rightward curve-shifting effects; also recorded: rightward shifting competitive effects; effect on NE-mediated cAMP response at α1A-AR (α1A-AR [1]; NE dose-response, propranolol and rauwolscine present): rightward curve-shifting effects; also recorded: rightward shifting competitive effects; extent of inhibition of 125I-HEAT binding at α1A-AR (α1A-AR [3]): fully inhibit; also recorded: completely inhibited; effect on NE binding at α1A-AR (α1A-AR [3]; compound 10^−5 M, absence of GTP, 125I-HEAT): fully-inhibited the binding of NE; also recorded: completely competes off NE binding; extent of inhibition of 125I-HEAT binding at α1D-AR (α1D-AR): completely inhibited
6 | NC[C@H](O)c1ccc(O)c(O)c1 [NE, norepinephrine] |  |  |  | fraction of receptor in the high affinity state, NE alone (α1A-AR [3]; absence of GTP): 15%
7 | CN(c1cccc(OCC2=NCCN2)c1CC(F)(F)F)S(C)(=O)=O.Cl [Cmpd-13, N-(3-((4,5-Dihydro-1H-imidazol-2-yl)methoxy)-2-(2,2,2-trifluoroethyl)phenyl)-N-methylmethanesulfonamide hydrochloride] | do not show any basal activity | lost PAM activity; also recorded: display competitive inhibition; also recorded: abolishes PAM activity | do not show any basal activity | 

Now from value to compound, other results behind:

Row | intrinsic (basal) agonist activity, inositol phosphate (α1A-AR [2]) | Structure (SMILES) | PAM activity (NE-mediated cAMP potentiation, PAM assay) (α1A-AR [1]) | intrinsic (basal) agonist activity, cAMP (α1A-AR [1]) | further results
8 | do not show any basal activity | CC(C)CCc1c(OCC2=NCCN2)cccc1N(C)S(C)(=O)=O.Cl [Cmpd-10, N-(3-((4,5-Dihydro-1H-imidazol-2-yl)methoxy)-2-isopentylphenyl)-N-methylmethanesulfonamide hydrochloride] | retained PAM activity; also recorded: display PAM effect | do not show any basal activity | 
9 | do not show any basal activity | CC(C)Cc1c(OCC2=NCCN2)cccc1N(C)S(=O)(=O)C(C)C.Cl [Cmpd-12, N-(3-((4,5-Dihydro-1H-imidazol-2-yl)methoxy)-2-isobutylphenyl)-N-methylpropane-2-sulfonamide hydrochloride] | lost PAM activity; also recorded: display competitive inhibition; also recorded: abolished PAM activity | do not show any basal activity | 
10 | do not show any basal activity | CN(c1cccc(OCC2=NCCN2)c1CC(C)(C)C)S(C)(=O)=O.Cl [Cmpd-14, N-(3-((4,5-Dihydro-1H-imidazol-2-yl)methoxy)-2-neopentylphenyl)-N-methylmethanesulfonamide hydrochloride] | retained PAM activity; also recorded: display PAM effect | do not show any basal activity | 

From publication PMC9762201 (Current Research in Pharmacology and Drug Discovery, 2022)
